The structures appear in SMILES notation.

Data on 28 compounds can be found in ChEMBL document CHEMBL4840354, “Identification of Diarylurea Inhibitors of the Cardiac-Specific Kinase TNNI3K by Designing Selectivity Against VEGFR2, p38α, and B-Raf” (J Med Chem, 2021).

Assay [1] concerns the target Vascular endothelial growth factor receptor 2 (Homo sapiens, UniProt P35968). Put plainly: Inhibition of GST-6His tagged VEGFR2 (unknown origin) using biotin-aminohexyl-EEEEYFELVAKKKK-NH2 peptide substrate incubated for 90 mins by HTRF assay. In general terms: In TR-FRET formats the signal depends on donor and acceptor labels being close together.
Assay [2] is filed under the species Homo sapiens. Nature of the assay: Selectivity index, ratio of IC50 for inhibition of VEGFR2 (unknown origin) to IC50 for inhibition of TNNI3K (unknown origin).
Assay [3] addresses T1, Serine/threonine-protein kinase TNNI3K (Homo sapiens, UniProt Q59H18).
T1 sequence (Q59H18 whole entry): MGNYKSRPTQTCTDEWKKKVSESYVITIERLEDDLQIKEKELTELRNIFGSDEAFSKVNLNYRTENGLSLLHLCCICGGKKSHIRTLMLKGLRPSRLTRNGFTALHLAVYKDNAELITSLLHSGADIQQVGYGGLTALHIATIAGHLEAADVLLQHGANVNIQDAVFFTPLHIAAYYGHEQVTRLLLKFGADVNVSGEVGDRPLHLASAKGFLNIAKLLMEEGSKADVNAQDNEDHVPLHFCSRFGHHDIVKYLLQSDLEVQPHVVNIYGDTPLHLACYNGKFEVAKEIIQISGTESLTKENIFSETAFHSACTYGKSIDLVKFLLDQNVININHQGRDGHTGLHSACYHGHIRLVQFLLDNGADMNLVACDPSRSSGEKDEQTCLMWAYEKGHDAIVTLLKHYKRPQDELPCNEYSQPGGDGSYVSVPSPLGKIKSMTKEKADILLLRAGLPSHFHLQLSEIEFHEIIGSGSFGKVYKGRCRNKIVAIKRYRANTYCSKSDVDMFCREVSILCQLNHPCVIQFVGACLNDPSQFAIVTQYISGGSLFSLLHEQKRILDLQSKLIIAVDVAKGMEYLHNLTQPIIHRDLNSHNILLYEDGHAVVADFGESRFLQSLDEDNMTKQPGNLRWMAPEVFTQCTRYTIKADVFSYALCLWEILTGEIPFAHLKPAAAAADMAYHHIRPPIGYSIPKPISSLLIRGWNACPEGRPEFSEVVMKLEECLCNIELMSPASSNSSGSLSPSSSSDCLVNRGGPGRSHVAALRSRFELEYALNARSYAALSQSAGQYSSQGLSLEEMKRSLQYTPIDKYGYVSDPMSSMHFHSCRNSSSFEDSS
Put plainly: Inhibition of TNNI3K (unknown origin).

Assay [4] is filed under the species Homo sapiens. Put plainly: Selectivity index, ratio of IC50 for inhibition of p38alpha (unknown origin) to IC50 for inhibition of TNNI3K (unknown origin).
The target of assay [5] is Serine/threonine-protein kinase B-raf (Homo sapiens, UniProt P15056). Put plainly: Inhibition of B-Raf (unknown origin).
Serine/threonine-protein kinase B-raf, sequence (P15056 whole entry): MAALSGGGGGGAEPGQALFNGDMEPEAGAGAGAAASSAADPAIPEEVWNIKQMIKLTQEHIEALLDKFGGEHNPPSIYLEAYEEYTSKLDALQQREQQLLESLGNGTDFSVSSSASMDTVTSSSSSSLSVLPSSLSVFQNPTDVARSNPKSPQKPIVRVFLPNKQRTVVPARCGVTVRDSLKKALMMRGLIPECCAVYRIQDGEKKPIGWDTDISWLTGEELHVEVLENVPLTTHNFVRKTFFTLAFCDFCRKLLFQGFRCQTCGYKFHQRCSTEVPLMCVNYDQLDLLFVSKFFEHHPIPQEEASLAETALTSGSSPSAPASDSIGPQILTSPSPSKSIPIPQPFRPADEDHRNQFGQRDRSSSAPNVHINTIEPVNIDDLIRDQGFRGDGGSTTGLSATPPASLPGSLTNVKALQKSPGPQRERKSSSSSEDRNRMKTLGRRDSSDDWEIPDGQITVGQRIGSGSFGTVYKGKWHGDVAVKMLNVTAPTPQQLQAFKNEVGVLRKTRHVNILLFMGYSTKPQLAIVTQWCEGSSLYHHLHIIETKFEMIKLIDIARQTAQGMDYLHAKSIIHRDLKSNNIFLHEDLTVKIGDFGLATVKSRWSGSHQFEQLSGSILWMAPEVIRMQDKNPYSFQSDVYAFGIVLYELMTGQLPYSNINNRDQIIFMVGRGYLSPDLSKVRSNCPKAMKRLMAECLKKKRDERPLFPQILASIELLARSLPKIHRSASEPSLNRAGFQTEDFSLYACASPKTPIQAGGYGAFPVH
Assay [6] deals with Mitogen-activated protein kinase 14 (Homo sapiens, UniProt Q16539). Nature of the assay: Inhibition of p38alpha (unknown origin).
Mitogen-activated protein kinase 14, sequence (Q16539 whole entry): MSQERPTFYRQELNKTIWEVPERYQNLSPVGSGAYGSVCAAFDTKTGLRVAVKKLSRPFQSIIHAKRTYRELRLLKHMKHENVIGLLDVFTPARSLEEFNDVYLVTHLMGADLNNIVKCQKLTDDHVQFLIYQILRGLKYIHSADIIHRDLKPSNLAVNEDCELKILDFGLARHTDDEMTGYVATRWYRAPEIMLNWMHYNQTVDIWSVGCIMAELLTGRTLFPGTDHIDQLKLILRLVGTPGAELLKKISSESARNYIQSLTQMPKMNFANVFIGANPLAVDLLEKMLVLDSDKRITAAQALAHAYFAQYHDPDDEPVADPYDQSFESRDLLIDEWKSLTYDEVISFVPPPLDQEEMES

Vascular endothelial growth factor receptor 2, sequence (P35968 whole entry): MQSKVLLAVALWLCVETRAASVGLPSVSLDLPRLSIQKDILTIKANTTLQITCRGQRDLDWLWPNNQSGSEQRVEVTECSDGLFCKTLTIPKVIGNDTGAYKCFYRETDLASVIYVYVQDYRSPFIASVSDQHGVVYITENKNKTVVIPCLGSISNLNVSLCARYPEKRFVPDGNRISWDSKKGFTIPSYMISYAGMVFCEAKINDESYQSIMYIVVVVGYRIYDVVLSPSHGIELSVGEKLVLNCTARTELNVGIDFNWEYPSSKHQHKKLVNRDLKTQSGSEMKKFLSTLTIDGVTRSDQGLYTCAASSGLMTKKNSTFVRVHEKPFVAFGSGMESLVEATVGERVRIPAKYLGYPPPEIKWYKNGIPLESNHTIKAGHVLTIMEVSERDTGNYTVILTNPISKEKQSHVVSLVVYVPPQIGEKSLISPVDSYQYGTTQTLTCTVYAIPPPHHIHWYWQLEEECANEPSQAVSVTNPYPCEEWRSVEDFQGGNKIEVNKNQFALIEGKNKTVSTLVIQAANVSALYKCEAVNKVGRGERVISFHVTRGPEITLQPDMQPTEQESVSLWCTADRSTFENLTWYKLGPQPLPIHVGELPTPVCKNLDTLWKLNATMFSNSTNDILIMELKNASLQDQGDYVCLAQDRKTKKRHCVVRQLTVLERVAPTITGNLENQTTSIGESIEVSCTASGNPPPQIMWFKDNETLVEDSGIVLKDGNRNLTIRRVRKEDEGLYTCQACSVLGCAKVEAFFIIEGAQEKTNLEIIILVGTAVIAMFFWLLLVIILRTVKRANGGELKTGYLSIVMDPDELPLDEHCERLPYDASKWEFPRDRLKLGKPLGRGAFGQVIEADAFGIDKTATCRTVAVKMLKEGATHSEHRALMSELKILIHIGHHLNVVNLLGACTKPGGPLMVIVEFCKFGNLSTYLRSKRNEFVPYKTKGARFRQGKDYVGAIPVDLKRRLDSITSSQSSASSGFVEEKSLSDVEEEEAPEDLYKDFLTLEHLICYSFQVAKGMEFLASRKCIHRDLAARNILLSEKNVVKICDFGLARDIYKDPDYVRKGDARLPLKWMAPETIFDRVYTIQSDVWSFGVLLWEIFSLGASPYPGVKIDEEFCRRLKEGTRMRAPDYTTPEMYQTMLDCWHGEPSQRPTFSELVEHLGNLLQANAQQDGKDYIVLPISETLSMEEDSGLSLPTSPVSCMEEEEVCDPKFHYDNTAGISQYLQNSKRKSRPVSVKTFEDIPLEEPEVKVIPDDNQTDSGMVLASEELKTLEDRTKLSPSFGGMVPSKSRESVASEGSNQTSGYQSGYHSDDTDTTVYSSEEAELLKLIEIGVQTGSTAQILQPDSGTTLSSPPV

A word on the IC50: it is the concentration at which inhibition is half-maximal. The low end stands for higher potency, the high end for lower potency. With `CC(C)CNc1cc(Oc2ccc(NC(=O)Nc3cccc(C(F)(F)F)c3)cc2)ncn1`, the IC50 came out at 0.32 µM in assay [1], 0.05 µM in assay [3], 1.26 µM in assay [5] and 0.25 µM in assay [6]. For the same compound, the Ratio IC50 in the assay listed under Homo sapiens [2] came to 6.4; in the assay listed under Homo sapiens [4] it was 5.
For the compound `CNc1cc(Oc2c(C)cc(NC(=O)Nc3cccc(C(F)(F)F)c3)cc2Cl)ncn1`, the concentration for half-maximal inhibition (IC50) in assay [1] was 0.4 µM; in assay [3] it was 0.079 µM; in assay [5] it was over 2 µM; in assay [6], 2 µM. Besides, the Ratio IC50 in the assay listed under Homo sapiens [2] was found to be 5.1; in the assay filed under Homo sapiens [4], 25.
For `O=C(Nc1ccc(Oc2ncnc3[nH]ccc23)cc1)Nc1cccc(C(F)(F)F)c1`, the IC50 in assay [1] stood at 0.0025 µM; in assay [3], 0.016 µM; in assay [5], 0.4 µM; in assay [6] it was 0.5 µM. Further, the Ratio IC50 in the assay filed under Homo sapiens [2] was 0.16; in the assay listed under Homo sapiens [4], 31.
In the case of `CCNc1cc(Oc2ccc(NC(=O)Nc3cccc(C(F)(F)F)c3)cc2)ncn1`, the IC50 in assay [1] worked out at 0.016 µM; in assay [3], 0.025 µM; in assay [5] it was 0.5 µM; in assay [6] it was 0.32 µM. The results for the Ratio IC50 in the assay filed under Homo sapiens [2] and in the assay filed under Homo sapiens [4] were 0.64 and 13, respectively.
As to `CNc1cc(Oc2ccc(NC(=O)Nc3cccc(C(F)(F)F)c3)c(F)c2F)ncn1`, the half-maximal inhibitory concentration (IC50) worked out at 0.0025 µM in assay [1], 0.02 µM in assay [3], 0.016 µM in assay [5] and 0.16 µM in assay [6]. For the same compound, the Ratio IC50 in the assay filed under Homo sapiens [2] amounted to 0.13; in the assay listed under Homo sapiens [4], 8.
On to `COc1ccc2ncnc(Oc3ccc(NC(=O)Nc4cccc(C(F)(F)F)c4)cc3)c2c1`, for which the IC50 is 0.01 µM in assay [1], 0.1 µM in assay [3], 0.4 µM in assay [5] and 1.6 µM in assay [6]. Further, the Ratio IC50 in the assay filed under Homo sapiens [2] was found to be 0.1; in the assay filed under Homo sapiens [4], 16.
Turning to `CNc1cc(Oc2ccc(NC(=O)Nc3cccc(C(C)(F)F)c3)cc2)ncn1`, the IC50 in assay [1] is 0.04 µM; in assay [3] it was 0.04 µM; in assay [5], 0.5 µM; in assay [6], 1 µM. Besides, the Ratio IC50 came to 1 in the assay listed under Homo sapiens [2] and 25 in the assay listed under Homo sapiens [4].
As to `CNc1cc(Oc2ccc(NC(=O)Nc3cccc(C(F)(F)F)c3)cc2Cl)ncn1`, the IC50 was 0.05 µM in assay [1], 0.05 µM in assay [3], 0.5 µM in assay [5] and 0.8 µM in assay [6]. The Ratio IC50 in the assay filed under Homo sapiens [2] came out at 1; in the assay filed under Homo sapiens [4], 16.
As for `O=C(Nc1ccc(Oc2cc(Nc3cccc(CN4CCCC4)c3)ncn2)cc1)Nc1cccc(C(F)(F)F)c1`, the IC50 in assay [1] stood at 0.0032 µM; in assay [3] it was 0.01 µM; in assay [5], 0.2 µM; in assay [6], 0.05 µM. Also, the figures for the Ratio IC50 in the assay listed under Homo sapiens [2] and in the assay filed under Homo sapiens [4] were 0.32 and 5, respectively.
Take `CCCNc1cc(Oc2ccc(NC(=O)Nc3cccc(C(F)(F)F)c3)cc2)ncn1`: the IC50 in assay [1] amounted to 0.019 µM; in assay [3], 0.032 µM; in assay [5], 0.63 µM; in assay [6] it was 0.4 µM. The Ratio IC50 in the assay filed under Homo sapiens [4] is 13.
On to `CC(C)Nc1cc(Oc2ccc(NC(=O)Nc3cccc(C(F)(F)F)c3)cc2)ncn1`, for which the 50% inhibitory concentration (IC50) in assay [1] turned out to be 0.05 µM; in assay [3], 0.04 µM; in assay [5], 0.8 µM; in assay [6] it was 0.4 µM. Besides, the figures for the Ratio IC50 in the assay listed under Homo sapiens [2] and in the assay filed under Homo sapiens [4] were 1.3 and 10, respectively.
In the case of `C[C@H](O)CNc1cc(Oc2ccc(NC(=O)Nc3cccc(C(F)(F)F)c3)cc2)ncn1`, the IC50 was found to be 0.32 µM in assay [1], 0.032 µM in assay [3], 0.8 µM in assay [5] and 0.32 µM in assay [6]. For the same compound, the Ratio IC50 in the assay filed under Homo sapiens [2] and in the assay filed under Homo sapiens [4] was 10 throughout.
Turning to `CNc1cc(Oc2ccc(NC(=O)Nc3cccc(C)c3)cc2)ncn1`, the IC50 was 0.8 µM in assay [1], 1.26 µM in assay [3], over 2 µM in assay [5] and over 25 µM in assay [6]. The Ratio IC50 was 0.63 in the assay filed under Homo sapiens [2] and over 20 in the assay listed under Homo sapiens [4].
With `O=C(Nc1ccc(Oc2ccncn2)cc1)Nc1cccc(C(F)(F)F)c1`, the IC50 in assay [1] was 0.05 µM; in assay [3] it was 0.16 µM; in assay [5], 1 µM; in assay [6], 0.63 µM. In addition, the Ratio IC50 worked out at 0.3 in the assay listed under Homo sapiens [2] and 3.9 in the assay filed under Homo sapiens [4].
Consider `Cc1cc(Oc2ccc(NC(=O)Nc3cccc(C(F)(F)F)c3)cc2)c2ccccc2n1`, for which the IC50 in assay [1] was over 10 µM; in assay [3] it was over 50 µM; in assay [5], 1.26 µM; in assay [6], 1 µM. Further, the Ratio IC50 in the assay listed under Homo sapiens [4] was under 0.02.
With `CNc1cc(Oc2ccc(NC(=O)Nc3cccc(C(F)(F)F)c3)c3ccccc23)ncn1`, the IC50 in assay [1] turned out to be 0.013 µM; in assay [3], 0.025 µM; in assay [5] it was 0.1 µM; in assay [6], 0.005 µM. Moreover, the figures for the Ratio IC50 in the assay filed under Homo sapiens [2] and in the assay filed under Homo sapiens [4] were 0.5 and 0.2, respectively.
As for `O=C(Nc1ccc(Oc2ncnc3ccccc23)cc1)Nc1cccc(C(F)(F)F)c1`, the IC50 in assay [1] turned out to be 0.32 µM; in assay [3] it was 0.8 µM; in assay [5], 1.26 µM; in assay [6], 1.26 µM. Moreover, the values for the Ratio IC50 in the assay listed under Homo sapiens [2] and in the assay listed under Homo sapiens [4] were 0.4 and 1.6, respectively.
Take `CCc1cccc(NC(=O)Nc2ccc(Oc3cc(NC)ncn3)cc2)c1`: the concentration for half-maximal inhibition (IC50) in assay [1] was 0.13 µM; in assay [3], 0.2 µM; in assay [5], over 2 µM; in assay [6], 16 µM. Besides, the figures for the Ratio IC50 in the assay filed under Homo sapiens [2] and in the assay listed under Homo sapiens [4] were 0.65 and 80, respectively.
Turning to `O=C(Nc1ccc(Oc2ccnc3ccccc23)cc1)Nc1cccc(C(F)(F)F)c1`, the IC50 in assay [1] stood at 0.005 µM; in assay [3], 0.063 µM; in assay [5], 0.2 µM; in assay [6], 0.1 µM. Moreover, the Ratio IC50 was determined as 0.08 in the assay listed under Homo sapiens [2] and 1.6 in the assay filed under Homo sapiens [4].
In the case of `O=C(Nc1ccc(Oc2ccncc2)cc1)Nc1cccc(C(F)(F)F)c1`, the IC50 in assay [1] is 0.02 µM; in assay [3], 0.05 µM; in assay [5], 0.63 µM; in assay [6], 0.2 µM. The Ratio IC50 in the assay filed under Homo sapiens [2] was found to be 0.4; in the assay filed under Homo sapiens [4], 4.
`C[C@@H](O)CNc1cc(Oc2ccc(NC(=O)Nc3cccc(C(F)(F)F)c3)cc2)ncn1`: the IC50 stood at 0.2 µM in assay [1], 0.063 µM in assay [3], 1 µM in assay [5] and 0.5 µM in assay [6]. The results for the Ratio IC50 in the assay listed under Homo sapiens [2] and in the assay filed under Homo sapiens [4] were 3.2 and 8, respectively.
As to `CC(=O)Nc1cc(Oc2ccc(NC(=O)Nc3cccc(C(F)(F)F)c3)cc2)ncn1`, the IC50 in assay [1] amounted to 0.0013 µM; in assay [3], 0.02 µM; in assay [5], 0.032 µM; in assay [6] it was 0.079 µM. Further, the figures for the Ratio IC50 in the assay filed under Homo sapiens [2] and in the assay listed under Homo sapiens [4] were 0.07 and 4, respectively.
For the compound `O=C(Nc1ccc(Oc2cc(O)ncn2)cc1)Nc1cccc(C(F)(F)F)c1`, the IC50 in assay [1] was 3.2 µM; in assay [3] it was 3.2 µM; in assay [5] it was over 2 µM; in assay [6], 1.6 µM. The figures for the Ratio IC50 in the assay filed under Homo sapiens [2] and in the assay filed under Homo sapiens [4] were 1 and 0.5, respectively.
Take `COc1cc(Oc2ccc(NC(=O)Nc3cccc(C(F)(F)F)c3)cc2)ncn1`: the IC50 in assay [1] is 0.4 µM; in assay [3], 4 µM; in assay [5], over 2 µM; in assay [6], 1.26 µM. Also, the Ratio IC50 is 0.1 in the assay filed under Homo sapiens [2] and 0.3 in the assay listed under Homo sapiens [4].
Turning to `COc1cc2ncnc(Oc3ccc(NC(=O)Nc4cccc(C(F)(F)F)c4)cc3)c2cc1OC`, the IC50 is 0.002 µM in assay [1], 0.023 µM in assay [3], 0.063 µM in assay [5] and 0.8 µM in assay [6]. In addition, the Ratio IC50 came out at 0.08 in the assay listed under Homo sapiens [2] and 32 in the assay listed under Homo sapiens [4].
As to `CNc1cc(Oc2ccc(NC(=O)Nc3cccc(C(C)F)c3)cc2)ncn1` (centres undefined), the 50% inhibitory concentration (IC50) amounted to 0.079 µM in assay [1], 0.079 µM in assay [3], 1 µM in assay [5] and 5 µM in assay [6]. In addition, the Ratio IC50 in the assay filed under Homo sapiens [2] amounted to 1; in the assay filed under Homo sapiens [4] it was 63.
Turning to `CNc1cc(Oc2ccc(NC(=O)Nc3cccc(C(F)(F)F)c3)cc2F)ncn1`, the IC50 in assay [1] is 0.016 µM; in assay [5], 1.6 µM; in assay [6], 1 µM. The Ratio IC50 in the assay listed under Homo sapiens [2] was 0.64; in the assay filed under Homo sapiens [4], 40.
Take `CNC(=O)c1cc(Oc2ccc(NC(=O)Nc3cccc(C(F)(F)F)c3)cc2)ccn1`: the IC50 in assay [1] is 0.004 µM; in assay [3] it was 0.079 µM; in assay [6], 0.32 µM. In addition, the Ratio IC50 in the assay filed under Homo sapiens [2] was determined as 0.05; in the assay filed under Homo sapiens [4], 4.
